What is called melting point is the temperature of the solid-liquid transition.

Data on 35 compounds can be found in a melting point compilation (Tetko et al.; mined from patent text by program, amines drawn as free bases though some values may be those of a salt).

Consider `CC(C)Nc1nc2cc(F)c(F)cc2n1[C@H]1O[C@@H](CO)[C@H](O)[C@@H]1O`, for which the melting point lay within 156 to 158 °C.

Take `Cc1cc(C)nc(N(CSC(=S)N2CCCC2)C(=O)NS(=O)(=O)c2ccccc2Cl)n1`: the melting point is 131 to 133 °C.

Consider `C=CCN1C(C(=O)Nc2coc3ccccc3c2=O)C(=O)c2ccccc2S1(=O)=O` (stereo not given), for which the melting point is 218 to 220 °C.

The compound `Cc1cc(-c2ccccc2)n2nc(C(=O)N(C)C3CCCCC3)cc2n1` registered a melting point of 158 to 162 °C.

`CCOc1ccc2nc3ccc(C(=O)O)cn3c(=O)c2c1` gave a melting point of 260 to 265 °C.

With `CC1(C)CN(CCN2CC(C)(C)N(O)C(C)(C)C2=O)C(=O)C(C)(C)N1O`, the melting point is 193 °C.

With `CCOC(=O)c1sc(SC)c2c1CCc1cn(C)nc1-2`, the melting point was in the range of 193 to 194 °C.

For the compound `CS(=O)CC(=O)c1cc(-c2ccccc2)on1` (stereo not given), the melting point lay in the range of 164 to 166 °C.

The compound `CC(=O)Nc1c(CC(=O)O)c2ccccc2n1C` gave a melting point of 200 to 206 °C.

`COc1ccc(NC(=O)Nc2ccc(Cl)c(Cl)c2)cc1NC(=S)Nc1ccc(Cl)c([N+](=O)[O-])c1` came in with a melting point of 162 to 170 °C.

In turn, `CC(C)CNC(=O)N(CCCl)N=O` came in with a melting point of 51 °C.

`OC[C@H]1C[C@@H]2c3ccccc3Oc3ccc(F)cc3[C@H]2N1`: the melting point was 108 to 109 °C.

With `CN(C)CC(=O)NN=Cc1c(-c2ccccc2)nn2ccccc12`, the melting point was 172 to 173 °C.

Take `CCN1CCN(Cc2cc(-c3ccc4c(Nc5ccc(Cl)cc5Cl)c(C#N)cnc4c3)cs2)CC1`: the melting point was in the range of 182 to 184 °C.

As for `COC(=O)C1=C(CCc2cccs2)NC(CC(=O)N2CCN(C)CC2)=C(C(=O)OC)C1c1c(Cl)cccc1Cl` (stereo not given), the melting point was 142 to 145 °C.

The compound `COc1cccc(Cn2cc3c(-c4cccc(C(=O)NCCC#N)c4)cccc3n2)n1` displayed a melting point of 145 to 146 °C.

As to `O=C1NCN(c2ccccc2)C12CCN(CCCC1(c3ccc(F)cc3F)OCCO1)CC2`, the melting point lay within 58 to 62 °C.

The compound `Cc1nc(C)c(Cl)c(NCc2cccc(O)c2)n1` showed a melting point of 194 to 197 °C.

Turning to `CCOc1ccc2nc(COc3ccc(CC4SC(=O)N(C(c5ccccc5)(c5ccccc5)c5ccccc5)C4=O)cc3)n(C)c2n1` (stereo not given), the melting point lay within 88 to 100 °C.

In turn, `Nc1cccc(-c2ccc(CCN3CCN(c4nnnn4-c4ccccc4)CC3)cc2)n1` returned a melting point of 212 to 214 °C.

For `Cn1cc2c(Cl)cc(-c3ccccc3)nc2n1`, the melting point was 177 to 179 °C.

For the compound `CCc1noc(CC(=O)c2ccccc2)c1C(=O)NC`, the melting point fell in the range of 134 to 136 °C.

Turning to `CC(=O)C1=CCC2C3CCC4=CC(=O)CCC4(C)C3=CCC12C` (stereo not given), the melting point lay within 200 to 201 °C.

Take `CCCCN1CCC(C(=O)O)(S(=O)(=O)c2ccc(Oc3ccc(Cl)cc3)cc2)CC1`: the melting point turned out to be 201 °C.

The compound `CCN1CCN([C@@H](CNS(=O)(=O)c2ccc(OCc3cc(C)nc4ccccc34)cc2)C(=O)NO)CC1` showed a melting point of 150 °C.

With `O=c1c(-c2ccc(F)cc2)c(-c2ccc(SC(F)(F)F)cc2)cnn1Cc1ccccc1`, the melting point is 145 to 146 °C.

On to `CC(=O)Nc1cccc2ccc(O)cc12`, for which the melting point lay within 161 to 162 °C.

The compound `CN1CC(CCCN2CCN(c3ccccc3O)CC2)OC1=O` (stereo not given) gave a melting point of 112 to 116 °C.

`COc1cc(C(=O)CSC)ccc1OC(C)=O` yielded a melting point of 70.4 °C.

`CCOC(=O)COc1ccc(N2CCN(C(=O)OC(C)(C)C)CC2)cc1C=O` returned a melting point of 93 to 94 °C.

For `O=C(NCCC(F)(F)F)c1nc(Cl)c(Cl)[nH]1`, the melting point amounted to 177 °C.

In turn, `CC(C#CC1CCC1)N(O)C(N)=O` (stereo not given) returned a melting point of 144 to 145 °C.

As to `CC(C)Oc1ccc2ncn(/C=C/C(=O)O)c(=O)c2c1`, the melting point was in the range of 232 to 234 °C.

Take `COC(=O)[C@H](O)[C@@H](NC(=O)OC(C)(C)C)c1ccccc1`: the melting point was 130 to 132 °C.

For `O=C1c2ccccc2C(=O)N1Cc1cc(I)ccc1Cl`, the melting point lay within 134 to 136 °C.
